How the values were obtained:
Type in all cases: functional, cell-based
HuO-3N1 = assay: cells; conditions: Homo sapiens
Description: SANGER: Inhibition of human HuO-3N1 cell growth in a cell viability assay.

SW756 = assay: cells; conditions: Homo sapiens
Description: SANGER: Inhibition of human SW756 cell growth in a cell viability assay.

C3A = assay: cells; conditions: Homo sapiens
Description: SANGER: Inhibition of human C3A cell growth in a cell viability assay.

U-251 = assay: cells; conditions: Homo sapiens
Description: SANGER: Inhibition of human U251 cell growth in a cell viability assay.

RPMI-2650 = assay: cells; conditions: Homo sapiens
Description: SANGER: Inhibition of human RPMI-2650 cell growth in a cell viability assay.

NUGC-3 = assay: cells; conditions: Homo sapiens
Description: SANGER: Inhibition of human NUGC-3 cell growth in a cell viability assay.

HCC2157 = assay: cells; conditions: Homo sapiens
Description: SANGER: Inhibition of human HCC2157 cell growth in a cell viability assay.

LCLC-97TM1 = assay: cells; conditions: Homo sapiens
Description: SANGER: Inhibition of human LCLC-97TM1 cell growth in a cell viability assay.

VMRC-RCZ = assay: cells; conditions: Homo sapiens
Description: SANGER: Inhibition of human VMRC-RCZ cell growth in a cell viability assay.

NCI-H460 = assay: cells; conditions: Homo sapiens
Description: SANGER: Inhibition of human NCI-H460 cell growth in a cell viability assay.

HCT-116 = assay: cells; conditions: Homo sapiens
Description: SANGER: Inhibition of human HCT-116 cell growth in a cell viability assay.

EW-7 = assay: SANGER: Inhibition of human EW-7 cell growth in a cell viability assay.
PA-1 = assay: cells; conditions: Homo sapiens
Description: SANGER: Inhibition of human PA-1 cell growth in a cell viability assay.

AN3-CA = assay: cells; conditions: Homo sapiens
Description: SANGER: Inhibition of human AN3-CA cell growth in a cell viability assay.

IPC-298 = assay: SANGER: Inhibition of human IPC-298 cell growth in a cell viability assay.
TGW = assay: cells; conditions: Homo sapiens
Description: SANGER: Inhibition of human TGW cell growth in a cell viability assay.

IST-SL2 = assay: cells; conditions: Homo sapiens
Description: SANGER: Inhibition of human IST-SL2 cell growth in a cell viability assay.

KYSE-150 cell line = assay: cells; conditions: Homo sapiens
Description: SANGER: Inhibition of human KYSE-150 cell growth in a cell viability assay.

NCI-H596 = assay: cells; conditions: Homo sapiens
Description: SANGER: Inhibition of human NCI-H596 cell growth in a cell viability assay.

RMG-I = assay: cells; conditions: Homo sapiens
Description: SANGER: Inhibition of human RMG-I cell growth in a cell viability assay.

HCC38 = assay: cells; conditions: Homo sapiens
Description: SANGER: Inhibition of human HCC38 cell growth in a cell viability assay.

DG-75 = assay: cells; conditions: Homo sapiens
Description: SANGER: Inhibition of human DG-75 cell growth in a cell viability assay.

HOP-92 = assay: cells; conditions: Homo sapiens
Description: SANGER: Inhibition of human HOP-92 cell growth in a cell viability assay.

Hs-578T = assay: cells; conditions: Homo sapiens
Description: SANGER: Inhibition of human Hs-578-T cell growth in a cell viability assay.

T47D = assay: cells; conditions: Homo sapiens
Description: SANGER: Inhibition of human T47D cell growth in a cell viability assay.

CAMA-1 = assay: cells; conditions: Homo sapiens
Description: SANGER: Inhibition of human CAMA-1 cell growth in a cell viability assay.

NCI-H748 = assay: cells; conditions: Homo sapiens
Description: SANGER: Inhibition of human NCI-H748 cell growth in a cell viability assay.

Kasumi 1 = assay: cells; conditions: Homo sapiens
Description: SANGER: Inhibition of human KASUMI-1 cell growth in a cell viability assay.

NCI-H64 = assay: cells; conditions: Homo sapiens
Description: SANGER: Inhibition of human NCI-H64 cell growth in a cell viability assay.

NCI-H2009 = assay: cells; conditions: Homo sapiens
Description: SANGER: Inhibition of human NCI-H2009 cell growth in a cell viability assay.

CAL-27 = assay: cells; conditions: Homo sapiens
Description: SANGER: Inhibition of human CAL-27 cell growth in a cell viability assay.

MG-63 = assay: cells; conditions: Homo sapiens
Description: SANGER: Inhibition of human MG-63 cell growth in a cell viability assay.

YKG-1 = assay: cells; conditions: Homo sapiens
Description: SANGER: Inhibition of human YKG-1 cell growth in a cell viability assay.

DMS-153 = assay: cells; conditions: Homo sapiens
Description: SANGER: Inhibition of human DMS-153 cell growth in a cell viability assay.

SNU-16 = assay: cells; conditions: Homo sapiens
Description: SANGER: Inhibition of human NCI-SNU-16 cell growth in a cell viability assay.

T-24 = assay: cells; conditions: Homo sapiens
Description: SANGER: Inhibition of human T-24 cell growth in a cell viability assay.

Calu-1 = assay: SANGER: Inhibition of human Calu-1 cell growth in a cell viability assay.
SNU-423 = assay: cells; conditions: Homo sapiens
Description: SANGER: Inhibition of human SNU-423 cell growth in a cell viability assay.

EFM-19 = assay: cells; conditions: Homo sapiens
Description: SANGER: Inhibition of human EFM-19 cell growth in a cell viability assay.

KMS-12-PE = assay: cells; conditions: Homo sapiens
Description: SANGER: Inhibition of human KMS-12-PE cell growth in a cell viability assay.

SW780 = assay: cells; conditions: Homo sapiens
Description: SANGER: Inhibition of human SW780 cell growth in a cell viability assay.

D-247MG = assay: cells; conditions: Homo sapiens
Description: SANGER: Inhibition of human D-247MG cell growth in a cell viability assay.

CAL-54 = assay: cells; conditions: Homo sapiens
Description: SANGER: Inhibition of human CAL-54 cell growth in a cell viability assay.

OVCAR-8 = assay: cells; conditions: Homo sapiens
Description: SANGER: Inhibition of human OVCAR-8 cell growth in a cell viability assay.

RT-4 = assay: SANGER: Inhibition of human RT4 cell growth in a cell viability assay.
MC-CAR = assay: cells; conditions: Homo sapiens
Description: SANGER: Inhibition of human MC-CAR cell growth in a cell viability assay.

MHH-CALL-2 = assay: cells; conditions: Homo sapiens
Description: SANGER: Inhibition of human MHH-CALL-2 cell growth in a cell viability assay.

DK-MG = assay: cells; conditions: Homo sapiens
Description: SANGER: Inhibition of human DK-MG cell growth in a cell viability assay.

NB1 = assay: cells; conditions: Homo sapiens
Description: SANGER: Inhibition of human NB1 cell growth in a cell viability assay.

CMK = assay: cells; conditions: Homo sapiens
Description: SANGER: Inhibition of human CMK cell growth in a cell viability assay.

Ca-Ski = assay: cells; conditions: Homo sapiens
Description: SANGER: Inhibition of human Ca-Ski cell growth in a cell viability assay.

HMV-2 cell line = assay: cells; conditions: Homo sapiens
Description: SANGER: Inhibition of human HMV-II cell growth in a cell viability assay.

CAL-39 = assay: cells; conditions: Homo sapiens
Description: SANGER: Inhibition of human CAL-39 cell growth in a cell viability assay.

HN = assay: cells; conditions: Homo sapiens
Description: SANGER: Inhibition of human HN cell growth in a cell viability assay.

SW1783 = assay: cells; conditions: Homo sapiens
Description: SANGER: Inhibition of human SW1783 cell growth in a cell viability assay.

TUR = assay: cells; conditions: Homo sapiens
Description: SANGER: Inhibition of human TUR cell growth in a cell viability assay.

NCI-H2347 = assay: cells; conditions: Homo sapiens
Description: SANGER: Inhibition of human NCI-H2347 cell growth in a cell viability assay.

SR = assay: cells; conditions: Homo sapiens
Description: SANGER: Inhibition of human SR cell growth in a cell viability assay.

TCC-SUP = assay: cells; conditions: Homo sapiens
Description: SANGER: Inhibition of human TCCSUP cell growth in a cell viability assay.

CAL-33 = assay: cells; conditions: Homo sapiens
Description: SANGER: Inhibition of human CAL-33 cell growth in a cell viability assay.

MC-IXC = assay: cells; conditions: Homo sapiens
Description: SANGER: Inhibition of human MC-IXC cell growth in a cell viability assay.

SJRH30 = assay: cells; conditions: Homo sapiens
Description: SANGER: Inhibition of human SJRH30 cell growth in a cell viability assay.

## CC(C)=CC[C@@H](O)C1=CC(=O)c2c(O)ccc(O)c2C1=O [SHIKONIN]
HuO-3N1
  IC50: 4430 nM
SW756
  IC50: 762 nM
C3A
  IC50: 657 nM
U-251
  IC50: 1430 nM
RPMI-2650
  IC50: 375 nM
NUGC-3
  IC50: 765 nM
HCC2157
  IC50: 338 nM
LCLC-97TM1
  IC50: 613 nM
VMRC-RCZ
  IC50: 547 nM
NCI-H460
  IC50: 1280 nM
HCT-116
  IC50: 386 nM
EW-7
  IC50: 1290 nM
PA-1
  IC50: 201 nM
AN3-CA
  IC50: 79.6 nM
IPC-298
  IC50: > 16000 nM
TGW
  IC50: 522 nM
IST-SL2
  IC50: 200 nM
KYSE-150 cell line
  IC50: 902 nM
NCI-H596
  IC50: 818 nM
RMG-I
  IC50: 864 nM
HCC38
  IC50: 787 nM
DG-75
  IC50: 1170 nM
HOP-92
  IC50: 2010 nM
Hs-578T
  IC50: 6220 nM
T47D
  IC50: 223 nM
CAMA-1
  IC50: 1520 nM
NCI-H748
  IC50: 1780 nM
Kasumi 1
  IC50: 124 nM
NCI-H64
  IC50: 547 nM
NCI-H2009
  IC50: 20.5 nM
CAL-27
  IC50: > 16000 nM
MG-63
  IC50: 257 nM
YKG-1
  IC50: 229 nM
DMS-153
  IC50: > 16000 nM
SNU-16
  IC50: > 16000 nM
T-24
  IC50: 2460 nM
Calu-1
  IC50: 1230 nM
SNU-423
  IC50: 163 nM
EFM-19
  IC50: 212 nM
KMS-12-PE
  IC50: 559 nM
SW780
  IC50: 406 nM
D-247MG
  IC50: 1660 nM
CAL-54
  IC50: 1420 nM
OVCAR-8
  IC50: 460 nM
RT-4
  IC50: 10100 nM
MC-CAR
  IC50: 814 nM
MHH-CALL-2
  IC50: 715 nM
DK-MG
  IC50: 9820 nM
NB1
  IC50: 1030 nM
CMK
  IC50: 352 nM
Ca-Ski
  IC50: 650 nM
HMV-2 cell line
  IC50: 56.4 nM
CAL-39
  IC50: 483 nM
HN
  IC50: 1370 nM
SW1783
  IC50: 1070 nM
TUR
  IC50: 466 nM
NCI-H2347
  IC50: 968 nM
SR
  IC50: 141 nM
TCC-SUP
  IC50: 554 nM
CAL-33
  IC50: 2000 nM
MC-IXC
  IC50: 387 nM
SJRH30
  IC50: 369 nM

Source: ChEMBL document CHEMBL1201861, “Genomics of Drug Sensitity in Cancer screening data, Wellcome Trust Sanger Institute”
